These results are taken from publication PMC8465649, “Semaphorin 3A—Glycosaminoglycans Interaction as Therapeutic Target for Axonal Regeneration” (Pharmaceuticals, 2021).

Data set [1] can be described thus: Potentiometric titration (protonation state). The format is physicochemical. Particulars: 25 °C, 0.15 M NaCl. As to the method:
UV absorbance was measured using a SpectraMax M5 spectrophotometer (Molecular Devices, Sunnyvale, CA, USA). The experiments were performed with a 10 μM methylene blue (MB) solution in 5 mM Tris-HCl buffer at pH 7.5, to which increasing amounts of heparin were added to saturation of the MB dye. For the competition assays, solutions of MB and heparin at fixed concentrations were titrated with increasing amounts of SICHI or CSIC02–04 peptoids. Then, the relative increase in absorbance at 665 nm, due to release of MB from the MB–heparin complex when adding either SICHI or CSIC02–04 to the cuvette, can be plotted vs. the charge ratio considering their respective concentrations and that all the peptoids have three positive charges, and heparin has four negative charges per disaccharide unit. With this information, the charge excess for 50% of displacement of the MB dye (CE50) for each compound can be calculated for comparison. Potentiometric titrations were carried out in a reaction vessel thermostated with a water bath at 25.0 ± 0.1 °C under nitrogen atmosphere, and 0.15 M NaCl was used as the supporting electrolyte. The titrant was delivered by a precision microburette. The potentiometric measurements were made with a pH-mV meter. The reference electrode was an Ag/AgCl electrode in saturated KCl solution. The acquisition of the emf data was performed with the computer program Tiamo 2.3.1. […]

Data set [2] can be described thus: 1D 1H NMR titration with chondroitin sulfate. Particulars: increasing amounts of CS, pH 7.5. Format: binding. An excerpt:
(§1) As a simple way to characterize the GAG binding behavior, we applied the method previously described by Jiao et al., using the cationic dye known as methylene blue (MB) in a colorimetric competition assay. To compare with our previous results for SICHI, we performed similar experimental design and data analysis, using the charge excess at 50% of MB displacement (CE50) as the parameter to compare the respective binding abilities. The four peptoids rendered very similar CE50 values (CE50 = 1.5–1.8, Figure 6a), reflecting the equivalent charge states. However, CSIC02 reached saturation (complete MB displacement) with a lower number of equivalents, which can be due to its slightly larger molecular size that may cause a more efficient interference with MB binding. Next, we assessed the integrity and solubility of CSIC02 by NMR. To characterize its tendency to aggregate in aqueous solution, NMR spectra at increasing concentrations were acquired which show the same sharp signals under all conditions (Figure S13). […] Direct binding of CSIC02 to GAGs was qualitatively assessed by specific NMR experiments.
Figure S14. CSIC02 spectra with increasing amount of Chondroitin sulfate from shark
cartilage (0,5, 1,0. 1,5, 2,0. 2,5 and 3,0 mg). Spectra were acquired in 10 mM Tris-HCl/150
(1 picture or pasted object on this page, not shown here)

Data set [3] in a line: WaterLOGSY NMR direct binding to heparin agarose. Particulars: 1D 1H WaterLOGSY. Here is the method:
Figure 6 (a) Chemical structures of triprotonated SICHI and CSIC02–04, as the main species in aqueous medium at neutral pH, and relative increase in MB absorbance at 665 nm versus charge ratio after the addition of the peptoids to the preformed MB/heparin complex (4.71 µM Hep repeating units + 9.83 µM MB in 5 mM Tris buffer at pH = 7.5). (b) 1D ^1H WaterLOGSY NMR experiments showing that CSIC02 binds to heparin agarose resin (used as a GAG mimetic).
As a simple way to characterize the GAG binding behavior, we applied the method previously described by Jiao et al., using the cationic dye known as methylene blue (MB) in a colorimetric competition assay. […] Next, we assessed the integrity and solubility of CSIC02 by NMR. […] Direct binding of CSIC02 to GAGs was qualitatively assessed by specific NMR experiments.
Next, 1D ^1H T1ρ relaxation filtered and WaterLOGSY NMR experiments were acquired at 25 °C on a 500-MHz spectrometer (Varian Inova; Agilent Technologies, Santa Clara, CA, USA) equipped with an AutoX inverse double-resonance probe with a z-shielded pulsed-field gradient coil. […] The experiments were recorded using the standard pulse sequence in the (WLOGSY_ES) Chempack library, with excitation sculpting to suppress water resonances. […]

A short description of data set [4]: Concentration-dependent 1H NMR and DOSY NMR (aggregation). The format is physicochemical. Conditions: DOSY NMR and spectra at increasing concentrations.
Excerpt: as §1
Figure S13. Concentration-dependent NMR spectra of CSIC02 and 1H DOSY NMR spectrum of 0.2 mM CSIC02 in presence of 0.5 mM caffeine. […] The spectra were processed with MNova software and the measured diffusion coefficients from DOSY […]

In the case of `CCN(CC)CCN(CC(=O)N(CCN1CCCC1)CC(=O)N(CCC1CCCN1C)CC(N)=O)C(=O)OCc1ccccc1` (stereo not shown) [CSIC02], the “protonation state at neutral pH” value in data set [1] is listed as “triprotonated”. Besides, the “binding to chondroitin sulfate (qualitative)” value in data set [2] is “progressive shifting of CSIC02 resonances”. Moreover, the “binding to heparin agarose (qualitative)” value in data set [3] was “binding”. Further, in data set [4], the “tendency to aggregate in aqueous solution” value is “absence of higher molecular weight aggregates”.
